Measured values from PMC5267425, “Identification of small molecule modulators of HIV-1 Tat and Rev protein accumulation” (Retrovirology, 2017).
Several values for one entry are separate records, joined by “and”; a condition that tells them apart may be missing. Identical values can stand only once.

Tested on: alternative splicing of host transcripts in HeLa rtTA HIV∆Mls cells
Experiment: RT-PCR of host alternative splicing events (PSI), capillary electrophoresis
Type: cell-based
Parameters: PSI ZNF827_1 / PSI RAN_1 / PSI SEC24B_1 / PSI SMN2_1 / PSI TRIM37_1 / PSI RPS24_1 / PSI PDCL_1 / PSI SMN2_2 / PSI SETD5_1 / PSI RAI14_1 / PSI TPM1_1 / PSI SPAG9_1 / PSI POLDIP3_1 / PSI SRPK2_1 / PSI POMT1_1: concentration or dose not given beside the values
Protocol: To assess the effect of compounds on expression/alternative splicing of cellular RNA, two approaches were used. For both, total RNA was prepared from DMSO or compound-treated cells. In the first assay, samples were assayed by medium throughput RT-PCR to determine the inclusion levels of alternatively spliced exons and splice sites located in 73 selected events. 73 primer sets containing a fluorescently (5-FAM) labeled primer for each, were used in RT-PCR. PCR products generated were denatured in formamide and quantified using ABI Prism capillary sequencer (Life Technologies). The fragment analysis was performed on the PeakScanner software (Life Technologies) in batch mode and automated using custom scripts written in Python. The inclusion level of each exon was calculated as the amount of transcripts carrying the alternative exon relative to the total amount of all transcripts detected in the PCR reaction and results are summarized for compound-treatment in comparison to DMSO treatment. In the second assay, extracted RNA was processed using the Illumina TruSeq RNA Sample Preparation Kit (Illumina) according to the manufacturer’s instructions. The cDNA library generated was validated (passed quality control on a Bioanalyzer 1000 DNA chip (Agilent)), normalized and pooled for cluster generation. cDNA libraries were sequenced on the Illumina HiSeq 2500 (paired-end, 125 bp) with version 4 chemistry following manufacturer’s protocols. The full human genome and transcriptomic sequences were downloaded from the UCSC Genome Browser (genome.ucsc.edu) database and Ensembl (www.ensembl.org), respectively, as described by Irimia et al.. Exon annotations and genomic coordinates for alternative splicing (AS) analysis were derived from tables downloaded from the UCSC Genome Browser database. To determine gene expression (GE) or alternative splicing (AS) changes in an unbiased way, the effective number of unique mappable positions in each transcript (i.e. the effective length) was determined by aligning sequences with unique transcriptomic alignment to the human genome using Bowtie. Reads with one unique genomic alignment were then aligned against the canonical transcriptome and, for each transcript, the number of reads with one unique transcriptomic alignment were counted. The expression level of genes was quantified as corrected ‘reads per kilobase of exon model per million mapped reads’ (cRPKM), a widely used metric to estimate gene expression levels. The expression cutoff was 0.5 cRPKM, corresponding to the transcript of the gene being present if there were ≥10 reads that mapped uniquely to a single genomic locus. Approximately 19,847 Ensembl annotated protein-coding genes were compared to create a gene list of differentially expressed genes. Genes were considered differentially expressed if fold changes in cRPKM was ≥2 in compound-treated versus DMSO-treated samples.

COc1ccc(C=NNC(=O)c2ccccc2O)cc1O [Compound 892, 2-hydroxy-N′-(3-hydroxy-4-methoxybenzylidene)benzohydrazide]
DPSI EIF4A2_1 (chr7:187988792-187988899, mean PSI 5193892 minus DMSO, n=3, P Value 0.014): 13.67%
PSI EIF4A2_1 (chr7:187988899-187988904, HeLa rtTA-HIV-DMls cells, replicates 25, 26, 27): 22.00 and 26.00 and 31.00
DPSI EIF4A2_1 (chr7:187988899-187988904, mean PSI 5193892 minus DMSO, n=3, P Value 0.035): 8.33%
PSI PDCL_1 (chr9:124628716-124628892, HeLa rtTA-HIV-DMls cells, replicates 25, 26, 27): 90.00 and 91.00 and 93.00
DPSI PDCL_1 (chr9:124628716-124628892, mean PSI 5193892 minus DMSO, n=3, P Value 0.152): 1.67%
PSI GM130_1 (chr9:130069293-130069374, HeLa rtTA-HIV-DMls cells, replicates 25, 26, 27): 23.00 and 18.00 and 15.00
DPSI GM130_1 (chr9:130069293-130069374, mean PSI 5193892 minus DMSO, n=3, P Value 0.007): -14.33%
PSI POMT1_1 (chr9:133368281-133368521, HeLa rtTA-HIV-DMls cells, replicates 25, 26, 27): 50.00 and 37.00 and 28.00
DPSI POMT1_1 (chr9:133368281-133368521, mean PSI 5193892 minus DMSO, n=3, P Value 0.626): -4.00%
PSI POMT1_1 (chr9:133371321-133371428, HeLa rtTA-HIV-DMls cells, replicates 25, 26, 27): 95.00 and 94.00 and 63.00
DPSI POMT1_1 (chr9:133371321-133371428, mean PSI 5193892 minus DMSO, n=3, P Value 0.627): -5.67%
PSI RPS24_1 (chr10:79467729-79467746, HeLa rtTA-HIV-DMls cells, replicates 25, 26, 27): 8.00 and 13.00 and 12.00
DPSI RPS24_1 (chr10:79467729-79467746, mean PSI 5193892 minus DMSO, n=3, P Value 0.079): 3.67%
PSI ADD3_1 (chr10:111882053-111882148, HeLa rtTA-HIV-DMls cells, replicates 25, 26, 27): 42.00 and 60.00 and 62.00
DPSI ADD3_1 (chr10:111882053-111882148, mean PSI 5193892 minus DMSO, n=3, P Value 0.701): 3.33%
PSI CTNND1_1 (chr11:57318058-57318129, HeLa rtTA-HIV-DMls cells, replicates 25, 26, 27): 82.00 and 76.00 and 100.00
PSI APLP2_1 (chr11:129498717-129498884, HeLa rtTA-HIV-DMls cells, replicates 25, 26, 27): 15.00 and 18.00 and 19.00
DPSI APLP2_1 (chr11:129498717-129498884, mean PSI 5193892 minus DMSO, n=3, P Value 0.009): -6.00%
PSI ERC1_1 (chr12:1091641-1091725, HeLa rtTA-HIV-DMls cells, replicates 25, 26, 27): 36.00 and 55.00 and 52.00
PSI FGFR1OP2_1 (chr12:27004715-27004828, HeLa rtTA-HIV-DMls cells, replicates 25, 26, 27): 22.00 and 15.00 (2×)
DPSI FGFR1OP2_1 (chr12:27004715-27004828, mean PSI 5193892 minus DMSO, n=3, P Value 0.030): -11.67%
PSI DNM1L_1 (chr12:32782066-32782143, HeLa rtTA-HIV-DMls cells, replicates 25, 26, 27): 24.00 and 37.00 and 39.00
PSI DNM1L_1 (chr12:32782465-32782497, HeLa rtTA-HIV-DMls cells, replicates 25, 26, 27): 38.00 and 52.00 and 53.00
DPSI DNM1L_1 (chr12:32782465-32782497, mean PSI 5193892 minus DMSO, n=3, P Value 0.447): -5.67%
PSI NAP1L1_1 (chr12:74747418-74747520, HeLa rtTA-HIV-DMls cells, replicates 25, 26, 27): 76.00 and 78.00 and 83.00
DPSI NAP1L1_1 (chr12:74747418-74747520, mean PSI 5193892 minus DMSO, n=3, P Value 0.123): -5.67%
PSI NAP1L1_1 (chr12:74748956-74749041, HeLa rtTA-HIV-DMls cells, replicates 25, 26, 27): 76.00 and 75.00 and 79.00
DPSI NAP1L1_1 (chr12:74748956-74749041, mean PSI 5193892 minus DMSO, n=3, P Value 0.018): -7.00%
PSI MVK_1 (chr12:108501990-108502134, HeLa rtTA-HIV-DMls cells, replicates 25, 26, 27): 78.00 and 100.00 (2×)
DPSI MVK_1 (chr12:108501990-108502134, mean PSI 5193892 minus DMSO, n=3, P Value 0.179): 16.00%
PSI MVK_1 (chr12:108503583-108503738, HeLa rtTA-HIV-DMls cells, replicates 25, 26, 27): 64.00 and 74.00 and 45.00
DPSI MVK_1 (chr12:108503583-108503738, mean PSI 5193892 minus DMSO, n=3, P Value 0.477): 8.33%
PSI RAN_1 (chr12:129923082-129923127, HeLa rtTA-HIV-DMls cells, replicates 25, 26, 27): 93.00 (2×) and 94.00
DPSI RAN_1 (chr12:129923082-129923127, mean PSI 5193892 minus DMSO, n=3, P Value 0.018): -4.67%
PSI MBNL2_1 (chr13:96807051-96807104, HeLa rtTA-HIV-DMls cells, replicates 25, 26, 27): 11.00 and 30.00 and 29.00
DPSI MBNL2_1 (chr13:96807051-96807104, mean PSI 5193892 minus DMSO, n=3, P Value 0.187): 10.33%
